Like-named read-outs stand apart in the source and are kept apart here.
Experiments:
[1] = target: T1, CAMK4 (Homo sapiens, UniProt Q16566); design: method as in earlier work; details: Table S1; cited from earlier work
T1 construct: purchased DiscoveRx KINOMEscan (Ambit Biosciences)
T1 sequence (Q16566 1-473): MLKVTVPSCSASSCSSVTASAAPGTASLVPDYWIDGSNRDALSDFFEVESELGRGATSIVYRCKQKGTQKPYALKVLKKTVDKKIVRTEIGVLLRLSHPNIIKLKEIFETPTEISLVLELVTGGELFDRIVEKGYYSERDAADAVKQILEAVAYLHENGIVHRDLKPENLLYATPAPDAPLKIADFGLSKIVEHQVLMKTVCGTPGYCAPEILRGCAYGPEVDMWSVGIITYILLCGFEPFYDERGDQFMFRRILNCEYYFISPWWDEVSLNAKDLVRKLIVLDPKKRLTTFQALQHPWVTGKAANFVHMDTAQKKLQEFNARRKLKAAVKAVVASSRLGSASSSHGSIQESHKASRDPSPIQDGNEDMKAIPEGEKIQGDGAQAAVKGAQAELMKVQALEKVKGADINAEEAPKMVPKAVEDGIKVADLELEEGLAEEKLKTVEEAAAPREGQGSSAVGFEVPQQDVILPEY

[2] = tested on: Molm-13; assay: MTT cell viability assay; details: Homo sapiens, MOLM-13, 72 h
[3] = target: T2, ERK1 (Homo sapiens, UniProt P27361); assay: KINOMEscan panel screen; assay type: binding; details: read-out: Percent Control(%)
T2 construct: purchased DiscoveRx KINOMEscan (Ambit Biosciences)

[4] = tested on: SU-DHL-6; assay: MTT cell viability assay; details: Homo sapiens, SU-DHL-6, 72 h
[5] = target: T3, EGFR (Homo sapiens, UniProt P00533); assay: KINOMEscan panel screen; assay type: binding; details: read-out: Percent Control(%)
T3 construct: purchased DiscoveRx KINOMEscan (Ambit Biosciences)
T3 sequence (P00533 25-1210): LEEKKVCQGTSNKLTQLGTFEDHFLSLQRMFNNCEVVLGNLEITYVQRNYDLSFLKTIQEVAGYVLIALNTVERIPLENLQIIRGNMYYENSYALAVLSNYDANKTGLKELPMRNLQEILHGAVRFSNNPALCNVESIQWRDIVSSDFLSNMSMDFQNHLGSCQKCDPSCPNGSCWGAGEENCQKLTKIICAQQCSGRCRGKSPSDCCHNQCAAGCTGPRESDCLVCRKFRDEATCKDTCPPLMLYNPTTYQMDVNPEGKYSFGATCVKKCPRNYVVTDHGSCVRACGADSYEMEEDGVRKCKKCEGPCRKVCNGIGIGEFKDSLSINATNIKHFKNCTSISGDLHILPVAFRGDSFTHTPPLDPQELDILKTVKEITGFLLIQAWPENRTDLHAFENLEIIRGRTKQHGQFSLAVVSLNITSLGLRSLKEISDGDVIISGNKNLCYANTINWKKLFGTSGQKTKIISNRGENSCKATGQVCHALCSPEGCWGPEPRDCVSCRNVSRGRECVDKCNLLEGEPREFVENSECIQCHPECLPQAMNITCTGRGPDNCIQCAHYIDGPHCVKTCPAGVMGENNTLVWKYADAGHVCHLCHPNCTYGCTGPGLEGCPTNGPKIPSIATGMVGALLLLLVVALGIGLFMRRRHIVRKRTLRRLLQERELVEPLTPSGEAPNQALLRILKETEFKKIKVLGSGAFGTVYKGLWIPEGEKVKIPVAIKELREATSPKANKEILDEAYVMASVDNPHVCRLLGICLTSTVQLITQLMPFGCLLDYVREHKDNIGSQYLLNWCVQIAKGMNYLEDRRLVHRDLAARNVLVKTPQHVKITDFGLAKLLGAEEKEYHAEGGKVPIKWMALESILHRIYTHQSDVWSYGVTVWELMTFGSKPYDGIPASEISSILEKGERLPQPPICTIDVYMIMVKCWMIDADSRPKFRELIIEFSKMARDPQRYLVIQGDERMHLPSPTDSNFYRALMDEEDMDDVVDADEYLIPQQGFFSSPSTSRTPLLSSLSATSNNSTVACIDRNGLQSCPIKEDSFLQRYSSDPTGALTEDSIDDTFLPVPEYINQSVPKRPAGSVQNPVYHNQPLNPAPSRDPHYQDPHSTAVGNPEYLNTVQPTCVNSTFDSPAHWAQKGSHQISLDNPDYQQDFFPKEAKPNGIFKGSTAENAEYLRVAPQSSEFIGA

[6] = target: T4, TAOK3 (Homo sapiens, UniProt Q9H2K8); assay: KINOMEscan panel screen; assay type: binding; details: read-out: Percent Control(%)
T4 construct: purchased DiscoveRx KINOMEscan (Ambit Biosciences)
T4 sequence (Q9H2K8 whole entry): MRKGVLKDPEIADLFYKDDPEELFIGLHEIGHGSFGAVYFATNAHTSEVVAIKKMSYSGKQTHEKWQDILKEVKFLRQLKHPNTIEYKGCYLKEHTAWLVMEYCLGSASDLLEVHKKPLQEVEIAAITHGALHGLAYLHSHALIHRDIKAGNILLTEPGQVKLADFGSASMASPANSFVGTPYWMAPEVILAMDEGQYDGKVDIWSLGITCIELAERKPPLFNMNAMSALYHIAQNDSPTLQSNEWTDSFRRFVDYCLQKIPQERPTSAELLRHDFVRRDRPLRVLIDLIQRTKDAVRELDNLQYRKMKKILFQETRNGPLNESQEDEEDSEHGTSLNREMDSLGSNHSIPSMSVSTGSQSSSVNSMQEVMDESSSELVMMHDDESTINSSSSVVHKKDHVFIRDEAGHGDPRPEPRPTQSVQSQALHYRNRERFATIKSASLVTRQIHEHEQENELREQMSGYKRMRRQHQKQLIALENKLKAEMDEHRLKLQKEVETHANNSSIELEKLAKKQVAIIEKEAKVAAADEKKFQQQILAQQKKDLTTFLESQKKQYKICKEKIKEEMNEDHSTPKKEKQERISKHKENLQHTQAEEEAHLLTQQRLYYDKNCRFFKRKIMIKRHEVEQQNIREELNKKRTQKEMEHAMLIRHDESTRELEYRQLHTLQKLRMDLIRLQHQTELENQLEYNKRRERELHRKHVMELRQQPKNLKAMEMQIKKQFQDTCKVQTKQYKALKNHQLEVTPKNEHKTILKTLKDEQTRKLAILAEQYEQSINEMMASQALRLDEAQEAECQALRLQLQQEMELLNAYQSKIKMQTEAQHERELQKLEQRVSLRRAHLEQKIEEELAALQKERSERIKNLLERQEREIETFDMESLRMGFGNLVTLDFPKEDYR

[7] = target: T5, AURKC (Homo sapiens, UniProt Q9UQB9); assay: KINOMEscan panel screen; assay type: binding; details: read-out: Percent Control(%)
T5 construct: purchased DiscoveRx KINOMEscan (Ambit Biosciences)

[8] = target: FLT3-D835Y (Homo sapiens, UniProt P36888, D835Y); assay: KINOMEscan panel screen; assay type: binding; design: purchased DiscoveRx KINOMEscan (Ambit Biosciences); details: read-out: Percent Control(%)
[9] = target: T6, ACVR2B (Homo sapiens, UniProt Q13705); assay: KINOMEscan panel screen; assay type: binding; details: read-out: Percent Control(%)
T6 construct: purchased DiscoveRx KINOMEscan (Ambit Biosciences)

[10] = target: T7, CSF1R (Homo sapiens, UniProt P07333); assay: KINOMEscan panel screen; assay type: binding; details: read-out: Percent Control(%)
T7 construct: purchased DiscoveRx KINOMEscan (Ambit Biosciences)

[11] = target: T8, CDK9 (Homo sapiens, UniProt P50750); assay: KINOMEscan panel screen; assay type: binding; details: read-out: Percent Control(%)
T8 construct: purchased DiscoveRx KINOMEscan (Ambit Biosciences)
T8 sequence (P50750 whole entry): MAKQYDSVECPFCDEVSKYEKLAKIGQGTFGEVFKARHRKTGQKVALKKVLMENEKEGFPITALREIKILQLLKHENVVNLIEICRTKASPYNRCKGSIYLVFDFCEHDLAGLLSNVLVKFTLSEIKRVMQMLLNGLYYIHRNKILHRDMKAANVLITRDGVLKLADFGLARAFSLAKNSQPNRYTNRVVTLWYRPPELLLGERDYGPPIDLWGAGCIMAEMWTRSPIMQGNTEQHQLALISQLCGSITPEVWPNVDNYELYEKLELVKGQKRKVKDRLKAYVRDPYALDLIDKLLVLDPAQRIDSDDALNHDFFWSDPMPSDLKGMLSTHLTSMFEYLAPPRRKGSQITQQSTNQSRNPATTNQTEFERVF

[12] = target: T1, CAMK4; assay: KINOMEscan panel screen; assay type: binding; details: read-out: Percent Control(%)
[13] = target: T9, STK33 (Homo sapiens, UniProt Q9BYT3); assay: KINOMEscan panel screen; assay type: binding; details: read-out: Percent Control(%)
T9 construct: purchased DiscoveRx KINOMEscan (Ambit Biosciences)

[14] = target: T10, MAP3K15 (Homo sapiens, UniProt Q6ZN16); assay: KINOMEscan panel screen; assay type: binding; details: read-out: Percent Control(%)
T10 construct: purchased DiscoveRx KINOMEscan (Ambit Biosciences)

[15] = target: T11, HPK1 (Homo sapiens, UniProt Q92918); assay: KINOMEscan panel screen; assay type: binding; details: read-out: Percent Control(%)
T11 construct: purchased DiscoveRx KINOMEscan (Ambit Biosciences)

[16] = target: T12, ADCK3 (Homo sapiens, UniProt Q8NI60); assay: KINOMEscan panel screen; assay type: binding; details: read-out: Percent Control(%)
T12 construct: purchased DiscoveRx KINOMEscan (Ambit Biosciences)

[17] = target: T13, FGFR3 (Homo sapiens, UniProt P22607); assay: KINOMEscan panel screen; assay type: binding; details: read-out: Percent Control(%)
T13 construct: purchased DiscoveRx KINOMEscan (Ambit Biosciences)

[18] = target: T14, PIK3CA(I800L) (Homo sapiens, UniProt P42336, I800L); assay: KINOMEscan panel screen; assay type: binding; details: read-out: Percent Control(%)
T14 construct: purchased DiscoveRx KINOMEscan (Ambit Biosciences)
T14 sequence (P42336 whole entry I800L): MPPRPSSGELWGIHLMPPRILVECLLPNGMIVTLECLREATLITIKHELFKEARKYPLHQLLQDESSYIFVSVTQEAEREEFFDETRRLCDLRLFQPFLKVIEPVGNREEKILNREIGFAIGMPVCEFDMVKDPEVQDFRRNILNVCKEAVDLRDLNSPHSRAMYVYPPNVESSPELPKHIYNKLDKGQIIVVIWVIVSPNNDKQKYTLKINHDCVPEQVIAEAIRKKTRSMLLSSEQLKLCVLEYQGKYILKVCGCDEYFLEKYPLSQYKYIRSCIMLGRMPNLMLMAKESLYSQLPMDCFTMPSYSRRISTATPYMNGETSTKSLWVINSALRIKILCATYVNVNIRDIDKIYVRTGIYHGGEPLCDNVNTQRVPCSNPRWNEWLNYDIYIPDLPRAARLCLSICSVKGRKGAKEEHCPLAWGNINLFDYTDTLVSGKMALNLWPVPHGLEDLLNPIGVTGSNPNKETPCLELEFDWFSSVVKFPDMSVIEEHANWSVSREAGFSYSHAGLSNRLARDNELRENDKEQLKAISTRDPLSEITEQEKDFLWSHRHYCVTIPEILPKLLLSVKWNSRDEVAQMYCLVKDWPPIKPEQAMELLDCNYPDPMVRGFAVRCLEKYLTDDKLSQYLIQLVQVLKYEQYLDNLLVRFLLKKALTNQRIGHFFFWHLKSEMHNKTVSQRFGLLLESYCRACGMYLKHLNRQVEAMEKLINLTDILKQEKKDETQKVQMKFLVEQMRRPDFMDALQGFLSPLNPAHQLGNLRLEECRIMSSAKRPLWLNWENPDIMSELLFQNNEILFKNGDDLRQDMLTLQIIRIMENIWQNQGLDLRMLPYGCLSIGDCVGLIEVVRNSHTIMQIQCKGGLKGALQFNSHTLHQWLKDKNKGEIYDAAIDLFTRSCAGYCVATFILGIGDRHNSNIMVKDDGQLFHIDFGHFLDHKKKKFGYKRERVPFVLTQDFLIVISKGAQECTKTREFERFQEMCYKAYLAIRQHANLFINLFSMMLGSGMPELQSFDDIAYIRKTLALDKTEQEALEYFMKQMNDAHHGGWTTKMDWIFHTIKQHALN

[19] = target: T15, FER (Homo sapiens, UniProt P16591); assay: KINOMEscan panel screen; assay type: binding; details: read-out: Percent Control(%)
T15 construct: purchased DiscoveRx KINOMEscan (Ambit Biosciences)
T15 sequence (P16591 whole entry): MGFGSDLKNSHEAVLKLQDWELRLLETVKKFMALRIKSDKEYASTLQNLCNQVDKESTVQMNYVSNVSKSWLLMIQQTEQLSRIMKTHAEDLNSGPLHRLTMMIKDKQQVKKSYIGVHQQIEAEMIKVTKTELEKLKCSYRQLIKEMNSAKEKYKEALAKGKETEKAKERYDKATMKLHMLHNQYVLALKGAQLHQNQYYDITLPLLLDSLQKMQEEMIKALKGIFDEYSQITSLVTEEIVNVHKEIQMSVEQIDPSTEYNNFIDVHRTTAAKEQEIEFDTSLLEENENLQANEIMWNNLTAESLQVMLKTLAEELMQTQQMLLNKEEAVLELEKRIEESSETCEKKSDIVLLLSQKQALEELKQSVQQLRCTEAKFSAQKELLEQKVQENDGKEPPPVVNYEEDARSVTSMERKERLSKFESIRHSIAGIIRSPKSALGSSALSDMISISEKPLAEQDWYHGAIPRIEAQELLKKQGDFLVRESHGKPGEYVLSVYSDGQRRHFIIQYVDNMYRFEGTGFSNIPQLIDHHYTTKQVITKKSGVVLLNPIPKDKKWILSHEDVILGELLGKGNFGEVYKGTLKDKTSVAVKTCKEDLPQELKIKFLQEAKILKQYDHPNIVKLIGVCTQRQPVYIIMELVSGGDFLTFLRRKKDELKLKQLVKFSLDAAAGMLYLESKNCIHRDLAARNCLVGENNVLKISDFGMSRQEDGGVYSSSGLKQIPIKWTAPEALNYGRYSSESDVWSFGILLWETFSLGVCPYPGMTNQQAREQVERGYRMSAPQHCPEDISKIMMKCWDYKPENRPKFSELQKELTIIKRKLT

[20] = target: T16, MYLK (Homo sapiens, UniProt Q15746); assay: KINOMEscan panel screen; assay type: binding; details: read-out: Percent Control(%)
T16 construct: purchased DiscoveRx KINOMEscan (Ambit Biosciences)

[21] = target: T17, INSR (Homo sapiens, UniProt P06213); assay: KINOMEscan panel screen; assay type: binding; details: read-out: Percent Control(%)
T17 construct: purchased DiscoveRx KINOMEscan (Ambit Biosciences)

[22] = target: T18, PIK3CA(H1047Y) (Homo sapiens, UniProt P42336, H1047Y); assay: KINOMEscan panel screen; assay type: binding; details: read-out: Percent Control(%)
T18 construct: purchased DiscoveRx KINOMEscan (Ambit Biosciences)
T18 sequence (P42336 whole entry H1047Y): as the sequence (P42336 whole entry I800L) above, with L800I, H1047Y counted along it

[23] = target: T19, CSNK1D (Homo sapiens, UniProt P48730); assay: KINOMEscan panel screen; assay type: binding; details: read-out: Percent Control(%)
T19 construct: purchased DiscoveRx KINOMEscan (Ambit Biosciences)

[24] = target: T20, CHEK2 (Homo sapiens, UniProt O96017); assay: KINOMEscan panel screen; assay type: binding; details: read-out: Percent Control(%)
T20 construct: purchased DiscoveRx KINOMEscan (Ambit Biosciences)

[25] = target: T21, PRKCE (Homo sapiens, UniProt Q02156); assay: KINOMEscan panel screen; assay type: binding; details: read-out: Percent Control(%)
T21 construct: purchased DiscoveRx KINOMEscan (Ambit Biosciences)

[26] = target: T22, TBK1 (Homo sapiens, UniProt Q9UHD2); assay: KINOMEscan panel screen; assay type: binding; details: read-out: Percent Control(%)
T22 construct: purchased DiscoveRx KINOMEscan (Ambit Biosciences)

[27] = target: T23, MST4 (Homo sapiens, UniProt Q9P289); assay: KINOMEscan panel screen; assay type: binding; details: read-out: Percent Control(%)
T23 construct: purchased DiscoveRx KINOMEscan (Ambit Biosciences)

[28] = tested on: MDA-MB-231; assay: MTT cell viability assay; details: Homo sapiens, MDA-MB-231, 72 h
[29] = target: T24, EGFR(E746-A750del) (Homo sapiens, UniProt P00533, DEL746-750); assay: KINOMEscan panel screen; assay type: binding; details: read-out: Percent Control(%)
T24 construct: purchased DiscoveRx KINOMEscan (Ambit Biosciences)
T24 sequence (P00533 with tags, fused parts or gaps DEL746-750 limits assumed): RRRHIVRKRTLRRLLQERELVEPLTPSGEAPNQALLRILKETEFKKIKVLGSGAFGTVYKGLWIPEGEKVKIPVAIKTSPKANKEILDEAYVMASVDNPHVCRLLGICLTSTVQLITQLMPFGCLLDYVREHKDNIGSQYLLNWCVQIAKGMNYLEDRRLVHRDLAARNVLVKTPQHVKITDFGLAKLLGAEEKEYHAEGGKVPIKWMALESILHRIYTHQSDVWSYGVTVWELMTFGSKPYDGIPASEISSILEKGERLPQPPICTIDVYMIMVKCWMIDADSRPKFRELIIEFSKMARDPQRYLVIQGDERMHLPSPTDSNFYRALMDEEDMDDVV

[30] = target: T25, PIM1 (Homo sapiens, UniProt P11309); assay: KINOMEscan panel screen; assay type: binding; details: read-out: Percent Control(%)
T25 construct: purchased DiscoveRx KINOMEscan (Ambit Biosciences)
T25 sequence (P11309 whole entry): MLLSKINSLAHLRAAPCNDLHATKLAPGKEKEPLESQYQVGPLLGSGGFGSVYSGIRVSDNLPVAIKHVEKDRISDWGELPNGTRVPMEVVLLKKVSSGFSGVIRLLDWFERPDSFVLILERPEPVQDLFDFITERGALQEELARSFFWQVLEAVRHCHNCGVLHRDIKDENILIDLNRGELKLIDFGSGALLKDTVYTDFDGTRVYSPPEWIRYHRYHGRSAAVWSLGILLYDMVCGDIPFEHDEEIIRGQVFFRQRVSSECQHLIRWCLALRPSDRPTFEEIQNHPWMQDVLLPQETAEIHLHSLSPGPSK

[31] = target: T26, TGFBR2 (Homo sapiens, UniProt P37173); assay: KINOMEscan panel screen; assay type: binding; details: read-out: Percent Control(%)
T26 construct: purchased DiscoveRx KINOMEscan (Ambit Biosciences)

[32] = target: T27, SgK110 (Homo sapiens, UniProt P0C264); assay: KINOMEscan panel screen; assay type: binding; details: read-out: Percent Control(%)
T27 construct: purchased DiscoveRx KINOMEscan (Ambit Biosciences)

[33] = target: T28, RAF1 (Homo sapiens, UniProt P04049); assay: KINOMEscan panel screen; assay type: binding; details: read-out: Percent Control(%)
T28 construct: purchased DiscoveRx KINOMEscan (Ambit Biosciences)

[34] = target: T29, PIM2 (Homo sapiens, UniProt Q9P1W9); assay: KINOMEscan panel screen; assay type: binding; details: read-out: Percent Control(%)
T29 construct: purchased DiscoveRx KINOMEscan (Ambit Biosciences)

[35] = target: T30, PIK3CA(E542K) (Homo sapiens, UniProt P42336, E542K); assay: KINOMEscan panel screen; assay type: binding; details: read-out: Percent Control(%)
T30 construct: purchased DiscoveRx KINOMEscan (Ambit Biosciences)

[36] = target: T31, EGFR(L861Q) (Homo sapiens, UniProt P00533, L861Q); assay: KINOMEscan panel screen; assay type: binding; details: read-out: Percent Control(%)
T31 construct: purchased DiscoveRx KINOMEscan (Ambit Biosciences)

In the case of `O=C(Nc1ccc(Oc2ncnc3[nH]ncc23)cc1)Nc1ccc(Cl)c(C(F)(F)F)c1` [Compound 1, 1-(4-(1H-pyrazolo[3,4-d]pyrimidin-4-yloxy)phenyl)-3-(4-chloro-3-(trifluoromethyl)phenyl)urea], the IC50 [1] is listed as greater than 10 µM.

`CC(C)(C)c1cc(NC(=O)Nc2ccc(Oc3ncnc4[nH]ncc34)c(F)c2)no1` [SKLB-677, 1-(4-(1H-pyrazolo[3,4-d]pyrimidin-4-yloxy)-3-fluorophenyl)-3-(5-tert-butylisoxazol-3-yl)urea] showed an IC50 [2] of 0.116 nM, an IC50 ([2]; read-out: Cell viability IC50) of 0.116 nM and a remaining binding at 10 µM [3] of 76%. For the same molecule, the IC50 [4] was 7.78 µM, the remaining binding at 10 µM [5] was 29% and the remaining binding at 10 µM [6] was 0.55%. For the same molecule, the remaining binding at 10 µM [7] was 1.4%, the remaining binding at 10 µM [8] was 3.2% and the remaining binding at 10 µM [9] was 81%. It also gave a remaining binding at 10 µM [10] of 0.3%, a remaining binding at 10 µM [11] of 5.6% and a remaining binding at 10 µM [12] of 85%. It also gave a remaining binding at 10 µM [13] of 0.05%, a remaining binding at 10 µM [14] of 100% and a remaining binding at 10 µM [15] of 13%. It also gave a remaining binding at 10 µM [16] of 100%, a remaining binding at 10 µM [17] of 12% and a remaining binding at 10 µM [18] of 87%. For the same molecule, the remaining binding at 10 µM [19] was 24%, the remaining binding at 10 µM [20] was 40% and the remaining binding at 10 µM [21] was 87%. The remaining binding at 10 µM [22] was 100%, the remaining binding at 10 µM [23] was 44% and the remaining binding at 10 µM [24] was 32%. The remaining binding at 10 µM [25] was 90%, the remaining binding at 10 µM [26] was 70% and the remaining binding at 10 µM [27] was 24%. For the same molecule, the IC50 [28] was greater than 10 µM, the remaining binding at 10 µM [29] was 37% and the remaining binding at 10 µM [30] was 26%. It also gave a remaining binding at 10 µM [31] of 100%, a remaining binding at 10 µM [32] of 100% and a remaining binding at 10 µM [33] of 3.5%. It also gave a remaining binding at 10 µM [34] of 37%, a remaining binding at 10 µM [35] of 100% and a remaining binding at 10 µM [36] of 46%.

From paper PMC4620497 (Scientific Reports, 2015)
